The record followed here is ChEMBL document CHEMBL1212696, “Multienzyme docking in hybrid megasynthetases” (Nat Chem Biol, 2008).

A short description of assay [1]: Binding affinity to wild type Angiococcus disciformis PKS/NRPS expressed in Escherichia coli BL21 (DE3) by isothermal titration calorimetry.
A short description of assay [2]: Binding affinity to wild type Angiococcus disciformis PKS/NRPS expressed in Escherichia coli BL21 (DE3) by surface plasmon resonance assay. In general terms: Surface plasmon resonance follows binding to a sensor surface in real time, without labels.
Assay [3] in a line: Binding affinity to wild type Angiococcus disciformis PKS/NRPS R20A mutant expressed in Escherichia coli BL21 (DE3) by surface plasmon resonance assay.
The nature of assay [4]: Binding affinity to wild type Angiococcus disciformis PKS/NRPS R27A mutant expressed in Escherichia coli BL21 (DE3) by surface plasmon resonance assay.
Assay [5] is described as follows: Binding affinity to wild type Angiococcus disciformis PKS/NRPS R29A mutant expressed in Escherichia coli BL21 (DE3) by surface plasmon resonance assay.
A short description of assay [6]: Binding affinity to wild type Angiococcus disciformis PKS/NRPS R20A/R27A mutant expressed in Escherichia coli BL21 (DE3) by surface plasmon resonance assay.
Assay [7] can be described thus: Binding affinity to wild type Angiococcus disciformis PKS/NRPS R20A/R29A mutant expressed in Escherichia coli BL21 (DE3) by surface plasmon resonance assay.
Assay [8] can be described thus: Binding affinity to wild type Angiococcus disciformis PKS/NRPS R27A/R29A mutant expressed in Escherichia coli BL21 (DE3) by surface plasmon resonance assay.

One may read the Kd as a measure of binding affinity in units of concentration. Read a low Kd as higher affinity.

Each structure is given as a SMILES string.

Take `CCCC(=O)OCN(C(=O)[C@@H](NC(=O)[C@H]1CCCCN1C)[C@@H](C)CC)[C@H](C[C@@H](OC(C)=O)c1nc(C(=O)N[C@@H](Cc2ccc(O)cc2)C[C@H](C)C(=O)O)cs1)C(C)C` [TUBULYSIN B]: the Kd in assay [1] is 47 µM; in assay [2] it was 46 µM; in assay [3] it was 59 µM; in assay [4] it was 121 µM; in assay [5], 453 µM; in assay [6] it was 114 µM. In addition, the Kd in assay [7] stood at 596 µM; in assay [8], 282 µM.
